Tests used:
[1] = system: lysosomes of human skin fibroblasts; test: Lysosomal staining (Neutral Red); assay type: cell-based; conditions: treated cells compared to the controls
Procedure: (§1) All cell culture experiments were performed on early and mid passage cultures (about 20 to 40% lifespan completed) of normal human skin fibroblast line, designated ASF-2. In order to check the effects of test compounds on senescent cells, late passage cells with more than 90% lifespan completed were used. ASF-2 cell line was established from a mammary skin biopsy obtained from a young, non-smoking and healthy […] at the time of breast reduction operation. Normal culture conditions of medium (DMEM) containing antibiotics, 10% foetal calf serum, and incubation at 37° C. with 95% humidity were used. The effects of the test compounds were determined using the following procedures.
Lysosomal activity. Neutral Red is preferentially taken up into the lysosomes of the cell. Fibroblast cells are maintained in culture and exposed to test compounds over a range of concentrations. The cultures are visually examined after 72 hours, and the number of viable cells and/or the total cell protein content determined, after 72 hours exposure, by the Neutral Red Uptake method. Advantage of Neutral Red assay is that it detects only viable cells. Any material having a localized effect upon the lysosomes will, therefore, result in an artificially low (or possibly high) reflection of cell viability and cell number. […]

[2] = system: Amaranthus caudatus cotyledon/hypocotyl explants; test: Amaranthus bioassay (betacyanin content); assay type: in vivo, Amaranthus caudatus var. atropurpurea
Procedure: Testing of Novel Compounds in Amaranthus bioassay. Standard Amaranthus bioassay was performed with several modifications. The seeds of Amaranthus caudatus var. atropurpurea were surface-sterilized in 10% N-chlorobenzene sulfonamide (w/v) for 10 min and washed 5 times in deionized water. They were placed in 14 cm Petri dishes containing paper tissues saturated with deionized water. After 72 hours of cultivation at 25° C. in darkness, the roots of the seedlings were cut off. The explants, consisting of two cotyledons and hypocotyls, were placed in 5 cm Petri dishes on two layers of filter paper soaked in 1 ml of incubation medium containing 10 μmol Na2HPO4—KH2PO4, pH 6.8, 5 μmol tyrosine and the cytokinin to be tested. There were 20 explants per dish. The procedure was carried out under a green safe light in a darkroom. After a 48 hours of incubation at 25° C. in darkness, betacyanin was extracted by freezing the explants in 4 ml 3.33 μM acetic acid. The concentration of betacyanin was determined by comparing the absorbance at 537 nm and 620 nm as follows: DA=A537nm−A620nm. From the obtained data, the concentration with highest activity was selected for each compound tested. Relative activity of the compound at this concentration was calculated (see Table 3 below). […] The values shown in Table 3 are means of five replicates and the entire test was repeated twice.
The cytokinins to be tested were dissolved in dimethylsulfoxide (DMSO) and the solution brought up to 10^−3 M with distilled water.

[3] = system: human skin fibroblast line ASF-2; test: Short-term growth of human skin fibroblasts; assay type: cell-based; conditions: for cellular growth: 200 to 500 μM
Procedure: (§2) Experimental Procedures. A stock solution of 4 mM for 6-furfurylamino-8-aminopurine and 8 mM for other compounds were prepared by dissolving about […] per ml 1N HCl, followed by its appropriate dilution by the addition of Hank's buffer. The stock solution was filter sterilized, stored at 4° C., and was used for experiments by dilution it in the cell culture medium as required.
as §1
Growth characteristics. Short-term growth experiments were performed using 24-well tissue culture plates (growth area 1.9 cm^2). Freshly prepared cell suspensions from mass cultures of ASF-2 cells maintained in our labs were used. About 10,000 cells were seeded into 6 sets of 24-well plates. The cells were allowed to attach and stabilize for 24 hr in normal culture medium to achieve various final concentrations (range 40 to 500 μM). Culture medium was changed with the addition of test chemicals twice a week. The numbers of cells were counted after different days of treatment in 2 wells from each concentration of the test chemical, by following the normal method of cell trypsinization and counting using a Coultercounter. The third well in each category was fixed by cold methanol and stained with Giemsa stain for permanent record and for photography. The experiment was carried on for until the cultures became fully confluent and no further growth was possible.

[4] = system: SKH-1 hairless mice; test: Hairless mouse assay: skin moisture content; assay type: in vivo
Excerpt: Evaluation of cutaneous effects of new topical compounds in the hirless mouse assay. The purpose of this study was to evaluate new topical compounds for their safety and efficacy as topical skin anti-aging treatments. The hairless mouse model is a well established model for studying the treatments of photoaging. […] The present study was used to investigate a new class of anti-aging compounds in comparison to classical ones. […] Topical compounds and vehicle controls were be applied daily (Monday-Friday) for 3 weeks to the dorsal skin of hairless mice. At baseline (prior to the 1st treatment), and weekly, the dorsal skin was measured for: transepidermal water loss (TEWL); skin moisture content; and skin elasticity.
Experimental Design. 48 female SKH-1 hairless mice (5 weeks old, 20-25 grams, Charles River Laboratories, Wilmington, Mass.) are individually housed in filter-top cages, and acclimated for 5-7 days after delivery. The mice are divided into 8 treatment groups (n=6), including two different control groups (untreated control, vehicle control) and a therapeutic control (tretinoin 0.05% Renova™ cream). Cage cards are marked to indicate treatment groups 1-8. Water and mouse chow are provided ad libitum.
Skin Moisture Content & Elasticity. The measurements of skin moisture content and skin elasticity are important noninvasive methods used to characterize the effects of moisturizers and anti-wrinkle effects on skin. A DermaLab™ combination instrument were used to measure the skin moisture content and elasticity of the target skin sites at baseline and at weekly intervals. This instrument is equipped with dual probes which are placed on the skin surface and a quantitative measurement taken of the respective parameters and the measurements recorded on an integrated computer. Mean measurements was determined for each treatment group over time, and comparative statistics used to evaluate product effectiveness.
Topical Treatments. Beginning on Treatment Day 1, test products are applied topically each morning (Monday through Friday) after erythema evaluations for 3 weeks. Using a positive displacement pipette, 20 mg of each agent is applied to a 2 cm×2 cm area of the center midline of the back. The material was spread across the treatment area with the pipette tip.

[5] = system: human skin fibroblast line ASF-2; test: Cell attachment of human skin fibroblasts; assay type: cell-based; conditions: six hours of treatment, 40 to 500 μM
Procedure: A) Growth characteristics: • (1) Cell attachment frequency: to rule out immediate toxicity; • (2) Cell survival: to rule out delayed toxicity; • (3) Growth rates: to determine cell division stimulatory/inhibitory potential;
as §2, §1

In the case of `Nc1nc2c(NCc3ccco3)ncnc2[nH]1` [Compound 82, 6-furfurylamino-8-aminopurine], the “lysosomes (Neutral Red staining)” value [1] is reported as “larger and more numerous”, the “Activity (%)” value ([2]; at concentration with highest activity, activity of kinetin set at 100%) is reported as 147.45% and the “Concentration with highest activity” value ([2]; betacyanin content, 48 hours in darkness) is reported as 10^−4 mol/l. For the same molecule, the Cell growth ([3]; 80 μM vs untreated) was “similar”, the cellular growth [3] was “significantly inhibited” and the cellular growth ([3]; after 9 days) was “almost a total inhibition”. For the same molecule, the mean moisture content ([4]; at week 3) was “most effective”, the average moisture content ([4]; compared with the vehicle) was “higher than that of the vehicle” and the “Percent of cells attached” value [5] was “not affected to any significant extent”.

Source: patent US20130072506A1, “6,8-DISUBSTITUTED PURINE COMPOSITIONS” (priority 2011, published 2013)
